# US6710040B1, “Fluorinated cyclic amides as dipeptidyl peptidase IV inhibitors” (Pfizer Inc., priority 2002, dated 2004)
# Counter-ions that a name gives are not always drawn.
row,melting point,SMILES
1,220 °C (dec.),Cl.N[C@H](C(=O)N1CC(F)(F)C1)C1CCCCC1
2,195 °C (dec.),CCC(C)[C@H](N)C(=O)N1CC(F)(F)C1.Cl (some centres unmarked)
3,278 °C,"N[C@H](C(=O)N1CC(F)(F)C(F)(F)C1)C1CCCCC1 (as salt: hydrochloride) [Example 3, (S)-2-Amino-2-cyclohexyl-1-(3,3,4,4-tetrafluoro-pyrrolidin-1-yl)-ethanone]"
4,238 to 240 °C,"N[C@H](C(=O)N1CC(F)C1)C1CCCCC1 (as salt: hydrochloride) [Example 5, (S)-2-Amino-2-cyclohexyl-1-(3-fluoro-azetidin-1-yl)-ethanone]"

# Second part, the compound before the results:
row,SMILES,melting point
1,CCC(C)[C@H](N)C(=O)N1CCC(F)(F)CC1.Cl (some centres unmarked),190 to 192 °C
2,C[C@H](N)C(=O)N1CC(F)(F)C(F)(F)C1.Cl,> 250 °C
3,"CC[C@H](C)[C@H](N)C(=O)N1CC(F)C1 (as salt: hydrochloride) [Example 2, (2S,3S)-2-Amino-1-(3-fluoro-azetidin-1-yl)-3-methyl-pentan-1-one]",208 to 210 °C
4,"CC[C@@H](C)[C@H](N)C(=O)N1CC(F)(F)C(F)(F)C1 (as salt: hydrochloride) [Example 4, (2S,3R)-2-Amino-3-methyl-1-(3,3,4,4-tetrafluoro-pyrrolidin-1-yl)-pentan-1-one]",> 250 °C
5,"CC(C)[C@H](N)C(=O)N1CC(F)(F)C(F)(F)C1 (as salt: hydrochloride) [Example 6, (S)-2-Amino-3-methyl-1-(3,3,4,4-tetrafluoro-pyrrolidin-1-yl)-butan-1-one]",234 to 238 °C
6,"CC[C@@H](C)[C@H](N)C(=O)N1CCC(F)(F)C1 [Example 7, (2S,3R)-2-Amino-1-(3,3-difluoro-pyrrolidin-1-yl)-3-methyl-pentan-1-one]",196 to 198 °C
7,"CC[C@H](C)[C@H](N)C(=O)N1CCC(F)(F)C1 [Example 8, (2S,3S)-2-Amino-1-(3,3-difluoro-pyrrolidin-1-yl)-3-methyl-pentan-1-one]",195 to 198 °C
